From patent US20210308103A1, “TASK-1 INHIBITORS FOR TREATMENT OF ATRIAL ARRHYTHMIAS” (Universität Heidelberg, priority 2018, published 2021)
pIC50: −log10 of the molar value. Where two headings read alike, the source gives them in different places.

What was measured:
[1] = system: pigs with persistent atrial fibrillation; test: Cardioversion of pacing-induced persistent atrial fibrillation in pigs; format: in vivo, pig
Method: Doxapram and ketodoxapram were successfully applied for cardioversion in pigs. To induce atrial fibrillation in pigs, at first, pacemakers were implanted. Atrial fibrillation was induced by atrial rapid pacing. […] On average, pharmacological cardioversion to sinus rhythm was successful 3 minutes after injection of doxapram or ketodoxapram.

[2] = system: atrial fibrillation (AF) in humans; test: Cardioversion of atrial fibrillation in humans; format: in vivo, human; details: injection via peripheral venous catheter, dose adapted to body weight
Method: For cardioversion of atrial fibrillation (AF) in humans, doxapram can be injected via a peripheral venous catheter. The dose will be adapted to the body weight of the patient. Cardioversion is achieved within a few minutes (<30 minutes). The ECG of the patient is continuously monitored to detect the presence of atrial fibrillation (AF) or successful cardioversion. In case of an unsuccessful cardioversion, a second dose can be applied. If AF is present after applying the second dose, a conventional electrical cardioversion can be performed. To prevent AF episodes, patients can receive repeated a maintenance doses adapted to the body weight for oral or intravenous application.

[3] = target: porcine TASK-1 (Sus scrofa, UniProt A0A286ZMZ4); test: TASK-1 current inhibition, voltage clamp in Xenopus laevis oocytes (porcine channel); format: cell-based; details: FIG. 1A
Sequence of porcine TASK-1 (A0A286ZMZ4 1-401): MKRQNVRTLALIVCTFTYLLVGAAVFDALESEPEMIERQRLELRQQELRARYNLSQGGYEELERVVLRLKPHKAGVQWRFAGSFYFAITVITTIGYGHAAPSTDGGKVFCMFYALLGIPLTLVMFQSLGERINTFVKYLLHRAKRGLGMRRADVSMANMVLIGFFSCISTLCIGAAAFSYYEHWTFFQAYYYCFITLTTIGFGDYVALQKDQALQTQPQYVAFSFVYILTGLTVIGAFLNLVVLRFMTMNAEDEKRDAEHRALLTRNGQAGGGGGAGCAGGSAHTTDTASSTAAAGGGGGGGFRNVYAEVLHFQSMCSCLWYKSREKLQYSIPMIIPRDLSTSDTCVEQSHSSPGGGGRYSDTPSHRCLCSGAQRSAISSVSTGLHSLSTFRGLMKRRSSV
Excerpt: FIG. 1: Inhibitory effects of doxapram and ketodoxapram on TASK-1 K-ion channels, recorded by voltage-clamp measurements in Xenopus laevis oocytes. A) Concentration-effect curve for doxapram on porcine TASK-1; B) Concentration-effect curve for doxapram on human TASK-1; C) Concentration-effect curve for ketodoxapram on human TASK-1; […] E) Inhibition of TASK-1 by doxapram, ketodoxapnram, and mixtures thereof. Concentration-response curves for ketodoxapram and doxapram. TASK-1 current inhibition was recorded by voltage clamp measurements in Xenopus laevis oocytes according to standard protocols.

[4] = Plasma pharmacokinetics in pigs after intravenous doxapram; format: in vivo, pig; details: for Tmax / AUC(0-inf) / Cmax / AUC / half-life: 1.8 mg/kg body weight; for Tmax / AUCextra / AUC(0-inf) / Cmax / AUC / half-life: intravenous bolus of doxapram; for AUC(0-inf) / Cmax / AUC / half-life: pig, plasma, iv; for AUC: read-out: AUC0-n
Excerpt: FIG. 3: Pharmacokinetics of doxapram and ketodoxapram in pigs after intravenous administration. Concentration of doxapram and ketodoxapram, respectively, as measured in plasma samples taken at the indicated time points.
Pharmacokinetics of doxapram and ketodoxapram.
(§1) Analysis of doxapram and ketodoxapram in tissues. Mass spectrometry, in particular liquid chromatography tandem-mass spectrometry (LC-MS/MS) with deuterated internal standard, was used to quantify the concentrations of doxapram and ketodoxapram in tissue samples and plasma.
Doxapram was administered as an intravenous bolus to pigs and plasma concentration was determined over time.

[5] = target: T1, TASK-1 (Homo sapiens, UniProt O14649); test: TASK-1 current inhibition, voltage clamp in Xenopus laevis oocytes (human channel); format: cell-based; set-up: expressed in transfected cells; host or cells: Xenopus laevis oocytes; details: for Competition between ketodoxapram and doxapram at TASK-1: both compounds present, FIG. 1E; for pIC50: voltage clamp, FIG. 1B/1C
T1 sequence (O14649 whole entry): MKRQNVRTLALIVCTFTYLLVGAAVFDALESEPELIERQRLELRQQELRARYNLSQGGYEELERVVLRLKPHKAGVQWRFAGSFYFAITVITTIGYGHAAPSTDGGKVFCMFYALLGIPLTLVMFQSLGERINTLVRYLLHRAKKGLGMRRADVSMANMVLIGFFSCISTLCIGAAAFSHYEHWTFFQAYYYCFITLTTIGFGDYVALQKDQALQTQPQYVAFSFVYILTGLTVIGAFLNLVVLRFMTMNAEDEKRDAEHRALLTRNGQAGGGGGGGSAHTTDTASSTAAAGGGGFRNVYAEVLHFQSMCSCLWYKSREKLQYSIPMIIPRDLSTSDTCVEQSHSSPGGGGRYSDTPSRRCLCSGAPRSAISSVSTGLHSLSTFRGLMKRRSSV
Excerpt: FIG. 1: Inhibitory effects of doxapram and ketodoxapram on TASK-1 K-ion channels, recorded by voltage-clamp measurements in Xenopus laevis oocytes. A) Concentration-effect curve for doxapram on porcine TASK-1; B) Concentration-effect curve for doxapram on human TASK-1; C) Concentration-effect curve for ketodoxapram on human TASK-1; […] E) Inhibition of TASK-1 by doxapram, ketodoxapnram, and mixtures thereof. Concentration-response curves for ketodoxapram and doxapram. TASK-1 current inhibition was recorded by voltage clamp measurements in Xenopus laevis oocytes according to standard protocols. […] The ion channels TASK-1 ([…].1), Kv4.3, Kv1.5, Kv2.1, Kir3.1/4, Kv1.4 are predominantly expressed in the atrial myocardium. The ion channel TASK-3 ([…].1) is not expressed in the human myocardium but structurally related to TASK-1 (Schmidt C et al. (2015), Circulation 132(2): 82). Ion channel current inhibition was measured in Xenopus laevis oocytes (FIG. 1 D)). […] To test for competition between ketodoxapram and doxapram, concentration-response curves were determined by measuring TASK-1 current inhibition recorded by voltage clamp measurements in Xenopus laevis oocytes.

[6] = in vivo; details: pig
Excerpt: FIG. 4: Quantification of doxapram and ketodoxapram in porcine tissue samples. A) doxapram and ketodoxapram were quantified in brain tissue samples (CNS) and plasma samples of two pigs; B) Concentrations of doxapram and ketodoxapram in brain tissues of pigs treated with doxapram, which was metabolized to ketodoxapram.
FIG. 6: Correlation between plasma concentration and brain concentration of doxapram and its metabolite ketodoxapram in pigs after intravenous administration of doxapram; pig numbers and their group status are indicated (SR: sinus rhythm; AF: atrial fibrillation).
FIG. 7: Correlation between plasma concentration and brain concentration of ketodoxapram in pigs after intravenous administration of ketodoxapram; pig numbers and their group status are indicated (AF: atrial fibrillation).
FIG. 8: Short-term distribution of doxapram and its metabolite ketodoxapram in pigs 30 min after administration of doxapram; pig numbers and their group status are indicated (SR: sinus rhythm).
Quantification of ketodoxapram and doxapram in porcine tissues. In two pigs, doxapram and ketodoxapram were administered and quantified in brain tissue samples (CNS) and plasma samples (FIG. 4A).
as §1
Pigs with sinus rhythm or atrial fibrillation were treated with intravenous doxapram and plasma and brain samples were taken essentially simultaneously.
In two pigs, doxapram and ketodoxapram concentrations were determined in brain and plasma 30 min after intravenous administration.

[7] = system: pigs; test: Adverse effects observed in pigs on overdosing; format: in vivo, pig; details: pigs 40-60 kg body weight
Method: Adverse effects observed in pigs. […] These effects were not observed when an overdose of ketodoxapram was administered.

[8] = oral administration of enteric-coated doxapram; cited from earlier work
[9] = Plasma trough concentrations in pigs during long-term administration; format: in vivo, pig; details: repeated intravenous doses of doxapram over 18 days, FIG. 9
Method: FIG. 9: Plasma trough concentrations of doxapram and its metabolite ketodoxapram in pigs during repetitive intravenous administration of doxapram over 18 days.
FIG. 10: Plasma concentrations of ketodoxapram in pigs during long-term administration of ketodoxapram.
Pigs were administered repeated doses of doxapram over a period of several days.

[10] = target: T2, Kv1.5 (Homo sapiens, UniProt P22460); test: Ion channel current inhibition in Xenopus laevis oocytes, Kv1.5; format: cell-based; details: FIG. 1D
T2 construct: expressed in transfected cells; host or cells: Xenopus laevis oocytes
T2 sequence (P22460 whole entry): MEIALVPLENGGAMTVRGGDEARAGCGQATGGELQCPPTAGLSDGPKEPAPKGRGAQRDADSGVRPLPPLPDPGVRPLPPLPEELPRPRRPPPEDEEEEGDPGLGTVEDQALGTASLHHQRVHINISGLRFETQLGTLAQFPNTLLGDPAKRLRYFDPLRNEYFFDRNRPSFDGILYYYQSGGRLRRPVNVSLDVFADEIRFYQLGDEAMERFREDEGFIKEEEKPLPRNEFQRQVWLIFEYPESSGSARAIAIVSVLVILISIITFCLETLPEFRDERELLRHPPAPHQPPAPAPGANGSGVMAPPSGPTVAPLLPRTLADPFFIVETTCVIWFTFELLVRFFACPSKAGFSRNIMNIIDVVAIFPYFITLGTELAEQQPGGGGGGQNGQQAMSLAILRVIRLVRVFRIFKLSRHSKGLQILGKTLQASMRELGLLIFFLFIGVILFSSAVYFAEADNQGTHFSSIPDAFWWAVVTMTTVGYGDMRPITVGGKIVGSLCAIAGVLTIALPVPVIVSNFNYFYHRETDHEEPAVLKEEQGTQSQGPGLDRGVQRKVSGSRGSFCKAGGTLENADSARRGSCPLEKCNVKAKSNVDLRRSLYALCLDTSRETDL
Excerpt: FIG. 1: Inhibitory effects of doxapram and ketodoxapram on TASK-1 K-ion channels, recorded by voltage-clamp measurements in Xenopus laevis oocytes. A) Concentration-effect curve for doxapram on porcine TASK-1; B) Concentration-effect curve for doxapram on human TASK-1; C) Concentration-effect curve for ketodoxapram on human TASK-1; […] E) Inhibition of TASK-1 by doxapram, ketodoxapnram, and mixtures thereof. The ion channels TASK-1 ([…].1), Kv4.3, Kv1.5, Kv2.1, Kir3.1/4, Kv1.4 are predominantly expressed in the atrial myocardium. The ion channel TASK-3 ([…].1) is not expressed in the human myocardium but structurally related to TASK-1 (Schmidt C et al. (2015), Circulation 132(2): 82). Ion channel current inhibition was measured in Xenopus laevis oocytes (FIG. 1 D)).

[11] = Pharmacokinetics in a horse after three intravenous doses of doxapram; format: in vivo; details: FIG. 11
Method: FIG. 11: Pharmacokinetics of doxapram and its metabolite ketodoxapram in a horse after three intravenous administrations of doxapram.
Three intravenous doses of doxapram were administered to a horse.

[12] = target: T1, TASK-1; test: TASK-1 current inhibition, patch-clamp in human atrial cardiomyocytes; format: cell-based; set-up: human atrial cardiomyocytes isolated from heart auricles of patients with sinus rhythm; endogenous in cells; host or cells: human atrial cardiomyocytes from heart auricles of patients with sinus rhythm; details: cardiomyocytes from heart auricles of patients with sinus rhythm, FIG. 2
Excerpt: FIG. 2: Effects of ketodoxapram and doxapram in human atrial cardiomyocytes recorded by voltage-clamp measurements.

[13] = intravenous 1.8 mg per kg body weight
[14] = average of pigs 98, 99, 100, plasma
[15] = average of pigs 98, 99, 100, plasma, read-out: T1/2 (converted)
[16] = pig 98, plasma, read-out: T1/2 (converted)
[17] = pig 99, plasma, read-out: T1/2 (converted)
[18] = pig 100, plasma, read-out: T1/2 (converted)
[19] = pigs, summary of Table 1, read-out: Elimination half-life
[20] = Xenopus laevis oocytes, FIG. 1D
[21] = iv, Brain concentration as percentage of plasma concentration
[22] = intravenous 0.5 mg per kg body weight

In the case of CCN1CC(CCN2CCOCC2)C(c2ccccc2)(c2ccccc2)C1=O (stereo not drawn) [doxapram, 1-ethyl-4-(2-morpholin-4-ylethyl)-3,3-diphenyl-pyrrolidin-2-one], the “Cardioversion of persistent atrial fibrillation” value [1, 13] was “sufficient for cardioversion in all tested animals”, the “Time to cardioversion to sinus rhythm after injection, on average” value [1, 13] was 3 min and the Time to cardioversion [2] was less than 30 min. It also gave a pIC50 [3] of 6.00, a Tmax ([4]; pig 98, plasma) of 0 h and an AUCextra [4, 14] of 0.80%. The “Metabolism of doxapram in pigs” value ([4]; doxapram 1.8 mg/kg body weight, plasma samples, FIG. 3) was “rapidly metabolized to ketodoxapram”, the AUCextra ([4]; pig 98, plasma) was 0.61% and the AUCextra ([4]; pig 99, plasma) was 1.53%. The AUCextra ([4]; pig 100, plasma) was 0.26%, the AUC(0-inf) [4, 14] was 2950 ng·h/mL and the Cmax [4, 14] was 4090 ng/mL. For the same compound, the AUC [4, 14] was 2930 ng·h/mL, the half-life [4, 15] was 2.12 h and the AUC(0-inf) ([4]; pig 98, plasma) was 2200 ng·h/mL. It also gave a Cmax ([4]; pig 98, plasma) of 2310 ng/mL, an AUC ([4]; pig 98, plasma) of 2180 ng·h/mL and a half-life [4, 16] of 1.92 h. For the same compound, the AUC(0-inf) ([4]; pig 99, plasma) was 3180 ng·h/mL, the Cmax ([4]; pig 99, plasma) was 5060 ng/mL and the AUC ([4]; pig 99, plasma) was 3130 ng·h/mL. It also gave a half-life [4, 17] of 2.65 h, an AUC(0-inf) ([4]; pig 100, plasma) of 3480 ng·h/mL and a Cmax ([4]; pig 100, plasma) of 4900 ng/mL. The AUC ([4]; pig 100, plasma) was 3470 ng·h/mL, the half-life [4, 18] was 1.79 h and the half-life [4, 19] was 2 to 3 h. For the same compound, the “Most strongly inhibited ion channel among TASK-1, TASK-3, Kv4.3, Kv1.5, Kv2.1, Kir3.1/4, Kv1.4” value [5, 20] was “TASK-1 was the most strongly inhibited ion channel”, the “Competition between ketodoxapram and doxapram at TASK-1” value [5] was “replaced at the ion channel by ketodoxapram” and the pIC50 ([5]; Xenopus laevis oocytes) was 6.30. The “Plasma concentrations of doxapram and ketodoxapram relative to each other” value [6] was “similar”, the “Accumulation in the brain relative to ketodoxapram” value ([6]; iv) was 60-500 times and the “Detection of doxapram after ketodoxapram administration” value ([6]; iv) was “not detected”. The Kp [6, 21] was 0.0024, the Kp at 30 min [6, 21] was 0.001 and the “Central nervous adverse effects” value [7] was “clear signs of central nervous adverse effects”. For the same compound, the “Concentrations of doxapram and ketodoxapram in plasma relative to each other” value [8] was “about equal”, the “Course of plasma trough concentrations” value [9] was “initial accumulation phase” and the “Inhibition of ion channel Kv1.5” value [10] was “not inhibited”.

In the case of CCN1CC(CCN2CCOCC2=O)C(c2ccccc2)(c2ccccc2)C1=O (stereo not drawn) [ketodoxapram, 4-(2-(1-ethyl-5-oxo-4,4-diphenyl-3-pyrrolidinyl)ethyl)-3-morpholinone], the “Cardioversion of persistent atrial fibrillation” value [1, 22] was “sufficient for cardioversion in all tested animals”, the “Time to cardioversion to sinus rhythm after injection, on average” value [1, 22] was 3 min and the Tmax ([4]; pig 98, plasma) was 1 h. It also gave an AUCextra [4, 14] of 6.99%, an AUCextra ([4]; pig 98, plasma) of 4.65% and an AUCextra ([4]; pig 99, plasma) of 12.36%. For the same compound, the AUCextra ([4]; pig 100, plasma) was 3.96%, the AUC(0-inf) [4, 14] was 308 ng·h/mL and the Cmax [4, 14] was 47.9 ng/mL. It also gave an AUC [4, 14] of 282 ng·h/mL, a half-life [4, 15] of 2.81 h and an AUC(0-inf) ([4]; pig 98, plasma) of 157 ng·h/mL. It also gave a Cmax ([4]; pig 98, plasma) of 31.8 ng/mL, an AUC ([4]; pig 98, plasma) of 149 ng·h/mL and a half-life [4, 16] of 2.59 h. The AUC(0-inf) ([4]; pig 99, plasma) was 504 ng·h/mL, the Cmax ([4]; pig 99, plasma) was 63.5 ng/mL and the AUC ([4]; pig 99, plasma) was 442 ng·h/mL. It also gave a half-life [4, 17] of 3.48 h, an AUC(0-inf) ([4]; pig 100, plasma) of 265 ng·h/mL and a Cmax ([4]; pig 100, plasma) of 48.3 ng/mL. The AUC ([4]; pig 100, plasma) was 254 ng·h/mL, the half-life [4, 18] was 2.36 h and the half-life [4, 19] was 2 to 3 h. The “Effect on TASK-1 compared with doxapram” value [5, 20] was “significantly stronger than the effect of doxapram”, the “Most strongly inhibited ion channel among TASK-1, TASK-3, Kv4.3, Kv1.5, Kv2.1, Kir3.1/4, Kv1.4” value [5, 20] was “TASK-1 was the most strongly inhibited ion channel” and the “Competition between ketodoxapram and doxapram at TASK-1” value [5] was “stronger affinity to TASK-1”. The pIC50 ([5]; Xenopus laevis oocytes) was 5.90, the “Concentration in brain tissue compared with doxapram in the same tissue” value [6] was “several orders of magnitude lower” and the “Crossing of the blood-brain barrier compared with doxapram” value [6] was “much less effectively than doxapram”. The “Plasma concentrations of doxapram and ketodoxapram relative to each other” value [6] was “similar”, the “Brain concentration as percentage of the corresponding doxapram concentration” value ([6]; iv) was 0.2-1.7% and the “Central nervous adverse effects” value [7] was “not observed”. For the same compound, the “Concentrations of doxapram and ketodoxapram in plasma relative to each other” value [8] was “about equal”, the “Course of plasma trough concentrations” value [9] was “initial accumulation phase” and the “Initial metabolite accumulation phase” value [11] was 4 to 5 days. The “Plasma concentration as percentage of parent compound doxapram” value [11] was “about 10%”, the “TASK-1 inhibition compared with doxapram” value [12] was “significantly stronger than inhibition by doxapram” and the “Inhibition of ion channel Kv1.5” value [10] was “not inhibited”.
